The values below are quoted from earlier work in patent publication US11833118B2 (priority 2016, dated 2023).

Molecules are shown by their SMILES.

Test in data set [1]: not given
The source holds these as a separate data set.

On to `C=C(C)[C@H]1CC=C(C)CC1` [d-Limonene], for which the “Vapor Pressure at 25° C.” value is 2.0 mm Hg and the “Vapor Pressure at 53.8° C.” value was 10 mm Hg.

For `O` [Water], the “Vapor Pressure at 25° C.” value is on record as 23.8 mm Hg and the “Vapor Pressure at 53.8° C.” value is listed as 111.4 mm Hg.

Regarding `CCCCCc1cc(O)c2c(c1)OC(C)(C)[C@@H]1CCC(CO)=C[C@@H]21` [11-hydroxy-Δ9THC], the “crossing of the blood-brain barrier relative to Δ9THC” value in data set [1] (in vivo) is reported as “more rapidly crosses the blood-brain barrier”. For the same compound, the “psychoactivity relative to Δ9THC” value in data set [1] (man) is reported as “more psychoactive than Δ9THC”.
